According to PubChem BioAssay (NCI):
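A five-concentration, 48-hour dose response in 96-well plates underlies each endpoint, interpolated linearly between surrounding concentrations. GI50 = concentration required for 50% inhibition of growth. TGI denotes the concentration required for complete inhibition of growth.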

Key:
Assay in all cases: growth of human tumour cells (NCI), 48 h
[1] = system: HL-60(TB) leukemia
[2] = system: LOX IMVI melanoma
[3] = system: A549 NSCLC
[4] = system: BT-549 breast
[5] = system: HCT-15 colon
[6] = system: NCI-H460 lung
[7] = system: T-47D breast
[8] = system: ACHN renal
[9] = system: NCI-H23 lung
[10] = system: SK-MEL-28 melanoma
[11] = system: OVCAR-3 ovarian
[12] = system: UACC-62 melanoma
[13] = system: NCI-H522 lung
[14] = system: 786-0 renal
[15] = system: IGROV1 ovarian
[16] = system: M14 melanoma
[17] = system: MALME-3M melanoma
[18] = system: HCC-2998 colon
[19] = system: NCI/ADR-RES ovarian
[20] = system: SW-620 colon
[21] = system: MDA-MB-435
[22] = system: UO-31 renal
[23] = system: HT29 colon
[24] = system: CAKI-1 renal
[25] = system: SNB-19 CNS
[26] = system: SNB-75 CNS
[27] = system: KM12 colon
[28] = system: NCI-H226 lung
[29] = system: SK-MEL-2 melanoma
[30] = system: HOP-92 NSCLC
[31] = system: OVCAR-8 ovarian
[32] = system: DU-145 prostate
[33] = system: SK-MEL-5 melanoma
[34] = system: SK-OV-3 ovarian
[35] = system: SN12C renal
[36] = system: MDA-MB-231 breast
[37] = system: HOP-62 NSCLC
[38] = system: RPMI-8226 leukemia
[39] = system: COLO 205 colon
[40] = system: SF-539 CNS
[41] = system: SF-268 CNS
[42] = system: A498 renal
[43] = system: U251 CNS
[44] = system: OVCAR-4 ovarian
[45] = system: MCF7 breast
[46] = system: PC-3 prostate
[47] = system: MOLT-4 leukemia
[48] = system: OVCAR-5 ovarian
[49] = system: HS 578T breast
[50] = system: SF-295 CNS
[51] = system: RXF 393 renal
[52] = system: EKVX NSCLC
[53] = system: CCRF-CEM leukemia
[54] = system: UACC-257 melanoma
[55] = system: TK-10 renal
[56] = system: HCT-116 colon
[57] = system: K-562 leukemia
[58] = system: SR leukemia

Q: Which GI50 [1] does the source give for `CC12CC=CCC1CCC1C2CCC2(C)C(c3ccc(=O)oc3)CCC12O` (stereo unspecified) here?
A: 27.2 nM

Q: What about the TGI [1] of the same molecule?
A: 73.2 nM

Q: And the GI50 [2]?
A: 56.2 nM

Q: And the TGI [2]?
A: 213 nM

Q: And the GI50 [3]?
A: 32 nM

Q: And the TGI [3]?
A: 119 nM

Q: What about the GI50 [4] of the same molecule?
A: 40 nM

Q: And the TGI [4]?
A: 209 nM

Q: And the GI50 [5]?
A: 105 nM

Q: And the TGI [5]?
A: 458 nM

Q: What about the GI50 [6] of the same molecule?
A: 33.8 nM

Q: What about the TGI [6] of the same molecule?
A: 128 nM

Q: What about the GI50 [7] of the same molecule?
A: 230 nM

Q: What about the TGI [7] of the same molecule?
A: 887 nM

Q: And the GI50 [8]?
A: 36.9 nM

Q: What about the TGI [8] of the same molecule?
A: 138 nM

Q: What about the GI50 [9] of the same molecule?
A: 54.8 nM

Q: What about the TGI [9] of the same molecule?
A: 330 nM

Q: And the GI50 [10]?
A: 300 nM

Q: And the TGI [10]?
A: 1370 nM

Q: And the GI50 [11]?
A: 56.6 nM

Q: And the TGI [11]?
A: 282 nM

Q: What about the GI50 [12] of the same molecule?
A: 233 nM

Q: What about the TGI [12] of the same molecule?
A: 661 nM

Q: And the GI50 [13]?
A: 38.3 nM

Q: What about the TGI [13] of the same molecule?
A: 273 nM

Q: And the GI50 [14]?
A: 38.7 nM

Q: And the TGI [14]?
A: 209 nM

Q: What about the GI50 [15] of the same molecule?
A: 73.7 nM

Q: What about the TGI [15] of the same molecule?
A: 1410 nM

Q: What about the GI50 [16] of the same molecule?
A: 113 nM

Q: And the TGI [16]?
A: 404 nM

Q: And the GI50 [17]?
A: 104 nM

Q: And the TGI [17]?
A: 364 nM

Q: And the GI50 [18]?
A: 374 nM

Q: What about the TGI [18] of the same molecule?
A: 3370 nM

Q: What about the GI50 [19] of the same molecule?
A: 48.5 nM

Q: And the TGI [19]?
A: 276 nM

Q: And the GI50 [20]?
A: 53.9 nM

Q: What about the TGI [20] of the same molecule?
A: 366 nM

Q: And the GI50 [21]?
A: 179 nM

Q: What about the TGI [21] of the same molecule?
A: 727 nM

Q: What about the GI50 [22] of the same molecule?
A: 98.8 nM

Q: What about the TGI [22] of the same molecule?
A: 225 nM

Q: What about the GI50 [23] of the same molecule?
A: 63.3 nM

Q: And the TGI [23]?
A: 768 nM

Q: And the GI50 [24]?
A: 135 nM

Q: And the TGI [24]?
A: 448 nM

Q: And the GI50 [25]?
A: 295 nM

Q: What about the TGI [25] of the same molecule?
A: 1190 nM

Q: What about the GI50 [26] of the same molecule?
A: 60.4 nM

Q: What about the TGI [26] of the same molecule?
A: 302 nM

Q: What about the GI50 [27] of the same molecule?
A: 315 nM

Q: And the TGI [27]?
A: 1550 nM

Q: What about the GI50 [28] of the same molecule?
A: 219 nM

Q: What about the TGI [28] of the same molecule?
A: 595 nM

Q: What about the GI50 [29] of the same molecule?
A: 240 nM

Q: And the TGI [29]?
A: 741 nM

Q: What about the GI50 [30] of the same molecule?
A: 148 nM

Q: And the TGI [30]?
A: 756 nM

Q: And the GI50 [31]?
A: 94.4 nM

Q: And the TGI [31]?
A: 324 nM

Q: What about the GI50 [32] of the same molecule?
A: 44.8 nM

Q: And the TGI [32]?
A: 168 nM

Q: What about the GI50 [33] of the same molecule?
A: 63.3 nM

Q: And the TGI [33]?
A: 312 nM

Q: What about the GI50 [34] of the same molecule?
A: 276 nM

Q: What about the TGI [34] of the same molecule?
A: 688 nM

Q: What about the GI50 [35] of the same molecule?
A: 37.8 nM

Q: And the TGI [35]?
A: 470 nM

Q: What about the GI50 [36] of the same molecule?
A: 336 nM

Q: What about the TGI [36] of the same molecule?
A: 1640 nM

Q: What about the GI50 [37] of the same molecule?
A: 45.9 nM

Q: What about the TGI [37] of the same molecule?
A: 201 nM

Q: What about the GI50 [38] of the same molecule?
A: 107 nM

Q: And the TGI [38]?
A: 756 nM

Q: And the GI50 [39]?
A: 360 nM

Q: What about the TGI [39] of the same molecule?
A: 1450 nM

Q: What about the GI50 [40] of the same molecule?
A: 55 nM

Q: And the TGI [40]?
A: 184 nM

Q: What about the GI50 [41] of the same molecule?
A: 47.5 nM

Q: What about the TGI [41] of the same molecule?
A: 268 nM

Q: What about the GI50 [42] of the same molecule?
A: 76.8 nM

Q: What about the TGI [42] of the same molecule?
A: 540 nM

Q: And the GI50 [43]?
A: 127 nM

Q: And the TGI [43]?
A: 337 nM

Q: And the GI50 [44]?
A: 197 nM

Q: What about the TGI [44] of the same molecule?
A: 641 nM

Q: What about the GI50 [45] of the same molecule?
A: 79.4 nM

Q: What about the TGI [45] of the same molecule?
A: 961 nM

Q: What about the GI50 [46] of the same molecule?
A: 74.7 nM

Q: And the TGI [46]?
A: 309 nM

Q: And the GI50 [47]?
A: 29.2 nM

Q: And the TGI [47]?
A: 113 nM

Q: What about the GI50 [48] of the same molecule?
A: 186 nM

Q: What about the TGI [48] of the same molecule?
A: 482 nM

Q: And the GI50 [49]?
A: 33.5 nM

Q: And the TGI [49]?
A: 473 nM

Q: And the GI50 [50]?
A: 46.2 nM

Q: What about the TGI [50] of the same molecule?
A: 250 nM

Q: And the GI50 [51]?
A: 17.4 nM

Q: What about the TGI [51] of the same molecule?
A: 50.1 nM

Q: What about the GI50 [52] of the same molecule?
A: 60.2 nM

Q: And the TGI [52]?
A: 212 nM

Q: What about the GI50 [53] of the same molecule?
A: 37 nM

Q: And the TGI [53]?
A: 303 nM

Q: What about the GI50 [54] of the same molecule?
A: 246 nM

Q: And the TGI [54]?
A: 769 nM

Q: And the GI50 [55]?
A: 60.7 nM

Q: And the TGI [55]?
A: 496 nM

Q: And the GI50 [56]?
A: 34.9 nM

Q: And the TGI [56]?
A: 143 nM

Q: What about the GI50 [57] of the same molecule?
A: 96.7 nM

Q: What about the TGI [57] of the same molecule?
A: 2270 nM

Q: What about the GI50 [58] of the same molecule?
A: 30 nM

Q: What about the TGI [58] of the same molecule?
A: 123 nM
